# Experimental data reported in PubChem BioAssay AID1053167 (Broad Institute, 2014).
# Several values for one entry are separate records, joined by “and”; a condition that tells them apart may be missing. Equal values may be shown once. Activity calls are given as the source filed them. The rule behind the calls is not given here.
# Experiments:
# [1] = system: Vaccinia virus infected cells, plate reader read-out; test: Vaccinia orthopox stage specific inhibitors, infected cell plate reader assay, dose response confirmation (AID 1053167)
# [2] = as above; details: Vaccinia virus infected cells, plate reader read-out
Structure (SMILES),AC50 [1],also measured
C[C@H](O)C#Cc1ccc2c(c1)O[C@H](CN(C)Cc1ccc(-c3ccccc3)cc1)[C@@H](C)CN([C@H](C)CO)S2(=O)=O,> 20 µM (inactive),
COc1ccc(-c2ccc(CN(C)C[C@@H]3Oc4cc(C#C[C@@H](C)O)ccc4S(=O)(=O)N([C@@H](C)CO)C[C@@H]3C)cc2)cc1,2.2 µM,
Cc1cccc(-c2ccc(CN(C)C[C@@H]3Oc4cc(C#C[C@@H](C)O)ccc4S(=O)(=O)N([C@@H](C)CO)C[C@@H]3C)cc2)c1,1.74 µM,
C[C@H](O)C#Cc1ccc2c(c1)O[C@@H](CN(C)Cc1ccc(-c3ccccc3)cc1)[C@@H](C)CN([C@@H](C)CO)S2(=O)=O,,"activity change, negative = inhibition ([2]; at 10 µM (top of the series)): -4% (inactive)"
C[C@@H](O)C#Cc1ccc2c(c1)O[C@@H](CN(C)S(=O)(=O)c1ccc(-c3ccccc3)cc1)[C@@H](C)CN([C@@H](C)CO)S2(=O)=O,,"activity change, negative = inhibition ([2]; at 10 µM (top of the series)): -14% (inactive)"
C[C@H](O)C#Cc1ccc2c(c1)O[C@@H](CN(C)Cc1ccc(-c3ccccc3)cc1)[C@H](C)CN([C@@H](C)CO)S2(=O)=O,,"activity change, negative = inhibition ([2]; at 1 µM (top of the series)): 6% (inactive)"
COc1cccc(-c2ccc(CN(C)C[C@@H]3Oc4cc(C#C[C@@H](C)O)ccc4S(=O)(=O)N([C@@H](C)CO)C[C@@H]3C)cc2)c1,2.77 µM,
C[C@H]1CN([C@@H](C)CO)S(=O)(=O)c2ccc(-c3ccc(O)cc3)cc2O[C@H]1CN(C)Cc1ccc(-c2ccccc2)cc1,> 20 µM (inactive),
C[C@@H](O)C#Cc1ccc2c(c1)O[C@@H](CN(C)C(=O)c1ccc(-c3ccccc3)cc1)[C@@H](C)CN([C@@H](C)CO)S2(=O)=O,,"activity change, negative = inhibition ([2]; at 10 µM (top of the series)): -22% (inactive)"
C[C@H](O)C#Cc1ccc2c(c1)O[C@@H](CN(C)Cc1ccc(-c3ccccc3)cc1)[C@H](C)CN([C@H](C)CO)S2(=O)=O,> 20 µM (inactive),
Cc1ccccc1-c1ccc(CN(C)C[C@@H]2Oc3cc(C#C[C@@H](C)O)ccc3S(=O)(=O)N([C@@H](C)CO)C[C@@H]2C)cc1,1.16 µM,
COc1ccccc1-c1ccc(CN(C)C[C@@H]2Oc3cc(C#C[C@@H](C)O)ccc3S(=O)(=O)N([C@@H](C)CO)C[C@@H]2C)cc1,2.14 µM,
C[C@@H]1CN([C@@H](C)CO)S(=O)(=O)c2ccc(C#C[C@@H](C)O)cc2O[C@@H]1CN(C)Cc1ccc(-c2ccccc2)cc1,> 20 µM (inactive),
C[C@@H](O)C#Cc1ccc2c(c1)O[C@@H](CN(C)Cc1ccccc1)[C@@H](C)CN([C@@H](C)CO)S2(=O)=O,8.73 µM,
C[C@H](O)C#Cc1ccc2c(c1)O[C@H](CN(C)Cc1ccc(-c3ccccc3)cc1)[C@@H](C)CN([C@@H](C)CO)S2(=O)=O,5.7 µM,
COc1ccc(-c2ccc3c(c2)O[C@@H](CN(C)Cc2ccc(-c4ccccc4)cc2)[C@@H](C)CN([C@@H](C)CO)S3(=O)=O)cc1,> 20 µM (inactive),
C[C@@H](O)C#Cc1ccc2c(c1)O[C@@H](CN(C)Cc1ccc(-c3ccccc3)cc1)[C@@H](C)CN([C@@H](C)CO)S2(=O)=O,2.94 µM and 3.9 µM,
C[C@H](O)C#Cc1ccc2c(c1)O[C@H](CN(C)Cc1ccc(-c3ccccc3)cc1)[C@H](C)CN([C@H](C)CO)S2(=O)=O,> 20 µM (inactive),
CO[C@H]1CN(C)C(=O)c2ccc(NC(=O)c3ccc(F)cc3)cc2OC[C@H](C)N(C(=O)c2ccc(F)cc2)C[C@@H]1C,,"activity change, negative = inhibition ([2]; at 1 µM (top of the series)): 0% (inactive)"
C[C@@H](O)C#Cc1ccc2c(c1)O[C@@H](CN(C)Cc1ccc(-c3ccc(Cl)cc3)cc1)[C@@H](C)CN([C@@H](C)CO)S2(=O)=O,1.21 µM,
C[C@@H]1CN([C@H](C)CO)S(=O)(=O)c2ccc(C#C[C@@H](C)O)cc2O[C@H]1CN(C)Cc1ccc(-c2ccccc2)cc1,7.16 µM,
Cc1ccc(-c2ccc(CN(C)C[C@@H]3Oc4cc(C#C[C@@H](C)O)ccc4S(=O)(=O)N([C@@H](C)CO)C[C@@H]3C)cc2)cc1,1.48 µM,
C[C@@H](O)C#Cc1ccc2c(c1)O[C@@H](CN(C)Cc1ccc(-c3ccccc3Cl)cc1)[C@@H](C)CN([C@@H](C)CO)S2(=O)=O,1.34 µM,
C[C@H]1CN([C@@H](C)CO)S(=O)(=O)c2ccc(C#CC(C)(C)O)cc2O[C@H]1CN(C)Cc1ccc(-c2ccccc2)cc1,> 20 µM (inactive),
C[C@H](O)C#Cc1ccc2c(c1)O[C@@H](CN(C)Cc1ccc(-c3ccccc3)cc1)[C@@H](C)CN([C@H](C)CO)S2(=O)=O,,"activity change, negative = inhibition ([2]; at 10 µM (top of the series)): 1% (inactive)"
C[C@H]1CN([C@@H](C)CO)S(=O)(=O)c2ccc(Br)cc2O[C@H]1CN(C)Cc1ccc(-c2ccccc2)cc1,,"activity change, negative = inhibition ([2]; at 10 µM (top of the series)): -19% (inactive)"
CNC[C@@H]1Oc2cc(Br)ccc2S(=O)(=O)N([C@@H](C)CO)C[C@@H]1C,,"activity change, negative = inhibition ([2]; at 10 µM (top of the series)): -1% (inactive)"
C[C@@H](O)C#Cc1ccc2c(c1)O[C@@H](CN(C)Cc1ccc(-c3cccc(Cl)c3)cc1)[C@@H](C)CN([C@@H](C)CO)S2(=O)=O,2.56 µM,
